Results from ChEMBL document CHEMBL5226392, “Anti-inflammatory Quinoline Alkaloids from the Roots of Waltheria indica” (J Nat Prod, 2023).
Active and inactive are the calls of the source. The rule behind the calls is not given here.

Experiments:
RAW264.7 [1] = assay: Inhibition of NO production in LPS-stimulated mouse RAW264.7 cells preincubated for 15 mins followed by LPS stimulation and measured after 20 hrs by Griess reagent based assay; assay type: functional, cell-based
RAW264.7 [2] = assay: Inhibition of NO production in LPS-stimulated mouse RAW264.7 cells at 50 uM preincubated for 15 mins followed by LPS stimulation and measured after 20 hrs by Griess reagent based assay relative to control; assay type: functional; settings: RAW264.7, 20.25 h, time 1215 min
[3] = Cytotoxicity against LPS-stimulated mouse RAW264.7 cells assessed as cell survival at 50 uM preincubated for 15 mins followed by LPS stimulation and measured after 20 hrs by CCK-8 assay relative to control; assay type: toxicity, cell-based; settings: LPS-stimulated RAW264.7 cells, time 1215 min, read-out: Activity
[4] = Antiinflammatory activity in human 293/NFkB-Luc cells assessed as inhibition of TNF-alpha induced NFkaapaB activity at 50 uM preincubated for 15 mins followed by TNF-alpha induction and measured after 6 hrs by luminescence based assay relative to control; assay type: functional; settings: 6.25 h, time 375 min
[5] = Cytotoxicity against TNF-alpha induced human 293/NFkB-Luc cells assessed as increase in cell survival at 50 uM preincubated for 15 mins followed by TNF-alpha induction and measured after 6 hrs by MTT assay relative to control; assay type: toxicity, cell-based; settings: TNF-alpha induced 293/NFkB-Luc cells, time 375 min, read-out: Activity
[6] = Antiinflammatory activity in human 293/NFkB-Luc cells assessed as inhibition of TNF-alpha induced NFkaapaB activity preincubated for 15 mins followed by TNF-alpha induction and measured after 6 hrs by luminescence based assay; assay type: functional, cell-based
RAW264.7 [7] = assay: Antiinflammatory activity in mouse RAW264.7 cells assessed as inhibition of LPS-induced iNOS protein expression at 30 uM preincubated for 15 mins followed by LPS stimulation and measured after 24 hrs by Western blot analysis; assay type: functional, cell-based; settings: time 1215.0 min
[8] = Cytotoxicity against LPS-stimulated mouse RAW264.7 cells assessed as cell growth inhibition preincubated for 15 mins followed by LPS stimulation and measured after 20 hrs by CCK-8 assay; assay type: toxicity, cell-based; settings: LPS-stimulated RAW264.7 cells

Row | Compound | IC50 (RAW264.7 [1]) [µM] | inhibition at 50 µM (RAW264.7 [2]) [%] | viability at 20 h, 50 µM [3] [%] | inhibition at 50 µM [4] [%] | viability at 6 h, 50 µM [5] [%] | IC50 [6] [µM] | Activity (RAW264.7 [7]) | IC50 at 20 h [8] [µM]
1 | CNC(=N)NCCC[C@H](N)C(=O)O | 22.7 | – | – | – | – | – | – | –
2 | CC[C@H](C)[C@@H]1NC(=O)[C@H](NC(=O)/C=C/c2ccccc2)[C@H](c2ccccc2)Oc2ccc(cc2)/C=C\NC1=O | 43 | 58.5 | 100 | < 50 | 100 | – | – | –
3 | CCCCCCCC(=O)c1ccc(OC)c2[nH]c(C)c(OC)c(=O)c12 | – | < 50 | 69.9 | < 50 | 86.7 | – | – | –
4 | CC[C@@H](C)[C@@H]1NC(=O)[C@@H](NC(=O)[C@H](Cc2ccccc2)N(C)C)[C@@H](c2ccccc2)Oc2ccc(cc2)/C=C\NC1=O | – | < 50 | 94.8 | < 50 | 86.4 | – | – | –
5 | COc1c(C)[nH]c2c(OC)ccc(C(=O)CCCCc3ccccc3)c2c1=O | – | < 50 | 82.8 | < 50 | 76.8 | – | – | –
6 | COc1c(C)[nH]c2ccc3c(c2c1=O)[C@@H]1CCC[C@@]3(c2ccccc2)O1 | 35.7 | 58.7 | 100 | 78 | 89 | 7.1 | – | –
7 | CCCCCCC[C@H](O)c1ccc(OC)c2[nH]c(C)c(OC)c(=O)c12 | 25.8 | 91.7 | 64.7 | < 50 | 75.6 | – | – | –
8 | COc1c(CO)[nH]c2c(c1=O)[C@@H](CCCCCc1ccccc1)CCC2=O | 31 | 79.1 | 50.8 | 71.1 | 100 | 11.9 | – | –
9 | CCCCCCCC[C@H]1CCC(=O)c2[nH]c(C)c(OC)c(=O)c21 | 16.1 | 97.4 | 63.5 | < 50 | 85.8 | – | Active | –
10 | COc1c(C)[nH]c2c(c1=O)[C@@H](CCCCC(=O)c1ccccc1)CCC2=O | – | < 50 | 74.5 | < 50 | 82.2 | – | – | –
11 | CCCCCCCC[C@H]1CCC(=O)c2[nH]c(CO)c(OC)c(=O)c21 | 25.4 | 89.9 | 50.9 | < 50 | 93.1 | – | – | –
12 | COc1c(C)[nH]c2c(OC)ccc(CCCCCCC(C)=O)c2c1=O | 35.6 | 63.8 | 86.5 | < 50 | 75.8 | – | – | –
13 | COc1c(C)n(OC)c2c(c1=O)[C@@H](CCCCCc1ccccc1)CCC2 | 11 | 99.7 | < 50 | 88.6 | 89 | 12.1 | – | 32.2
14 | O=C1N/C=C\c2ccc(cc2)O[C@@H](c2ccccc2)[C@H](NC(=O)[C@@H]2CCCN2C(=O)/C=C/c2ccccc2)C(=O)N[C@H]1Cc1ccccc1 | 32 | 63.7 | 100 | < 50 | 76.6 | – | – | –
15 | COc1ccc(OC)c([C@@]2(O)c3ccc4[nH]c(C)c(OC)c(=O)c4c3[C@@H]3CC[C@H]2O3)c1 | – | < 50 | 100 | < 50 | 74.5 | – | – | –
16 | COc1ccccc1[C@]1(O)c2ccc3[nH]c(C)c(OC)c(=O)c3c2[C@@H]2CC[C@H]1O2 | – | < 50 | 100 | < 50 | 86.7 | – | – | –
17 | COc1c(C)[nH]c2c(c1=O)[C@@H](CCCCCc1ccccc1)CCC2=O | 40.7 | 59.7 | 67.5 | < 50 | 88.4 | – | – | –
18 | COc1ccccc1[C@@H]1c2ccc3[nH]c(C)c(OC)c(=O)c3c2[C@@H]2CC[C@H]1O2 | 38.8 | 56.3 | 100 | 84.5 | 79.6 | 7.2 | – | –
19 | COc1c(C)[nH]c2c(c1=O)[C@@H](CCCCCc1ccc(O)cc1)CCC2=O | – | < 50 | 89.3 | < 50 | 80.5 | – | – | –
20 | CCCCCCCC[C@H]1CC[C@@H](OC)c2[nH]c(C)c(OC)c(=O)c21 | 42.9 | 60.3 | 51.4 | < 50 | 90.3 | – | – | –
21 | CCCCCCCCc1ccc(O)c2[nH]c(C)c(OC)c(=O)c12 | – | < 50 | 70.2 | < 50 | 83.6 | – | – | –
22 | CCCCCCC[C@@H](O)c1ccc(OC)c2[nH]c(C)c(OC)c(=O)c12 | 25.8 | 86.5 | 84.9 | < 50 | 72.6 | – | – | –
23 | COc1c(C)n(OC)c2c(c1=O)[C@@H](CCCCC(=O)c1ccccc1)CCC2 | – | < 50 | 73.2 | 97.9 | 82.7 | 8.9 | – | –
24 | Cc1ccc(S(=O)(=O)/C=C/C#N)cc1 | – | – | – | – | – | 9.7 | – | –
25 | COc1c(C)[nH]c2c(c1=O)[C@H](CCCCCc1ccccc1)CCC2 | 12.8 | 99.1 | 61 | 81.6 | 91.8 | 10.1 | – | –
26 | COc1c(C)n(OC)c2c(c1=O)[C@@H](CCCCCc1ccc(O)cc1)CCC2 | 18.8 | 94.5 | < 50 | 85.4 | 85.3 | 10.3 | – | 25.9
27 | CCCCCCCC[C@H]1CCCc2[nH]c(C)c(OC)c(=O)c21 | 20.8 | 99.9 | 67.6 | < 50 | 90.8 | – | – | –
28 | COc1c(C)[nH]c2c(c1=O)[C@@H](CCCCCc1ccccc1)CC[C@H]2OC | – | < 50 | 57.2 | < 50 | 69.9 | – | – | –
29 | COc1c(C)[nH]c2c(O)ccc(CCCCCc3ccccc3)c2c1=O | – | < 50 | 59.3 | < 50 | 83.5 | – | – | –
30 | COc1c(C)[nH]c2cccc(CCCCCc3ccccc3)c2c1=O | 11.4 | 97.9 | < 50 | 77.5 | 76.7 | 10.2 | – | 33.3
